Reference: the supplement of paper PMC10307832

Key:
Assay in all cases: relative viability (nuclei count vs DMSO), 5 days (fraction); higher = more cells survive
[1] = compound: CC(O)(CS(=O)(=O)c1ccc(F)cc1)C(=O)Nc1ccc(C#N)c(C(F)(F)F)c1 [Bicalutamide] + Nc1ncn([C@H]2C[C@H](O)[C@@H](CO)O2)c(=O)n1 [Decitabine] (partner 2 µM)
Outline: (§1)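 Each reported value is a median over duplicate plates. It expresses relative viability: treated-well nuclei count divided by vehicle-well nuclei count. Lung cancer cell lines in 1536-well plates were dosed by pin tool a day after seeding, alone with one drug or with a fixed anchor-drug dose plus five library-drug doses (not always all listed) in √10 steps, and nuclei were counted after 5 days.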

[2] = compound: C(C(=O)C(=O)O)Br [Bromopyruvate] + COc1cc2c(Oc3ccc(NC(=O)C4(C(=O)Nc5ccc(F)cc5)CC4)cc3F)ccnc2cc1OCCCN1CCOCC1 [Foretinib] (partner 0.25 µM)
Outline: as §1

[3] = compound: CC(O)(CS(=O)(=O)c1ccc(F)cc1)C(=O)Nc1ccc(C#N)c(C(F)(F)F)c1 [Bicalutamide] + CC1(C)CCC(c2ccc(Cl)cc2)=C(CN2CCN(c3ccc(C(=O)NS(=O)(=O)c4ccc(N[C@H](CCN5CCOCC5)CSc5ccccc5)c(S(=O)(=O)C(F)(F)F)c4)cc3)CC2)C1 [Navitoclax] (partner 0.5 µM)
Outline: as §1

[4] = compound: C(C(=O)C(=O)O)Br [Bromopyruvate] + Nc1ncn([C@H]2C[C@H](O)[C@@H](CO)O2)c(=O)n1 [Decitabine] (partner 2 µM)
Outline: as §1

Cell Line | relative viability ([1]; first compound 0.08 µM) | relative viability ([1]; first compound 0.253 µM) | relative viability ([1]; first compound 0.8 µM) | relative viability ([1]; first compound 2.53 µM) | relative viability ([2]; first compound 1 µM) | relative viability ([2]; first compound 3.162 µM) | relative viability ([2]; first compound 10 µM) | relative viability ([2]; first compound 31.62 µM) | relative viability ([2]; first compound 100 µM) | relative viability ([3]; first compound 0.08 µM) | relative viability ([3]; first compound 0.253 µM) | relative viability ([3]; first compound 0.8 µM) | relative viability ([3]; first compound 2.53 µM) | relative viability ([4]; first compound 1 µM) | relative viability ([4]; first compound 3.162 µM) | relative viability ([4]; first compound 10 µM) | relative viability ([4]; first compound 31.62 µM) | relative viability ([4]; first compound 100 µM)
NCI-H1355 | 0.367 | 0.348 | 0.395 | 0.376 | 0.954 | 0.966 | 1.08 | 0.909 | 0.995 | 1.06 | 0.919 | 0.928 | 0.983 | 0.382 | 0.328 | 0.316 | 0.343 | 0.336
NCI-H1395 | 0.754 | 0.672 | 0.787 | 0.806 | 0.975 | 0.838 | 1.14 | 1.03 | 1.01 | 1.1 | 1.1 | 1.55 | 1.1 | 0.754 | 0.717 | 0.751 | 0.707 | 0.707
NCI-H1437 | 0.554 | 0.501 | 0.599 | 0.616 | 1.26 | 1.28 | 1.27 | 1.28 | 1.25 | 1.1 | 1.17 | 1.14 | 1.11 | 0.672 | 0.588 | 0.524 | 0.583 | 0.577
NCI-H1650 | 0.452 | 0.369 | 0.45 | 0.436 | 1.16 | 1.25 | 1.12 | 1.42 | 0.747 | 1.31 | 1.19 | 1.16 | 1.22 | 0.448 | 0.393 | 0.462 | 0.454 | 0.266
NCI-H1651 | 0.6 | 0.618 | 0.779 | 0.655 | 0.728 | 0.902 | 0.904 | 0.849 | 0.91 | 0.89 | 0.957 | 0.956 | 0.951 | 0.604 | 0.587 | 0.709 | 0.548 | 0.588
NCI-H1666 | 0.724 | 0.706 | 0.767 | 0.723 | 0.994 | 1.05 | 1.03 | 1 | 0.936 | 0.939 | 1.14 | 0.889 | 0.93 | 0.679 | 0.738 | 0.835 | 0.66 | 0.705
NCI-H1734 | 0.542 | 0.453 | 0.515 | 0.558 | 0.888 | 0.923 | 1.03 | 0.807 | 0.824 | 0.862 | 0.719 | 1.13 | 0.786 | 0.505 | 0.507 | 0.629 | 0.502 | 0.457
NCI-H1755 | 0.737 | 0.636 | 0.721 | 0.741 | 0.936 | 0.923 | 0.925 | 0.909 | 0.937 | 0.98 | 0.956 | 1.02 | 0.961 | 0.793 | 0.684 | 0.721 | 0.672 | 0.659
NCI-H1793 | 0.524 |  | 0.574 | 0.423 | 0.718 | 0.821 | 0.833 | 0.736 | 0.684 | 0.516 | 0.353 | 0.479 | 0.512 | 0.535 | 0.472 | 0.697 | 0.393 | 0.516
